Measurements taken from patent publication US20250313548A1 (Actio Biosciences, Inc., priority 2023, published 2025).

target: human, KCNT1 (Homo sapiens (Human), UniProt Q5JUK3); experiment: FLIPR Tl/K Flux Assay; type: cell-based; details: HEK293 cells stably expressing human KCNT1; Tl+ flux stimulated with EC80 of agonist Loxapine
Method in brief: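 HEK293 cells stably expressing human KCNT1 were loaded with FLIPR potassium dye in HEPES/HBSS pH 7.4 with 5 mM probenecid, 1 h at 25 °C, then given test compound for 30 min at 25 °C. Tl+ flux was triggered with chloride-free buffer containing Tl+ and EC80 loxapine and read 160 s. IC50 came from Hill fits of % inhibition.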

human, KCNT1, sequence (Q5JUK3 whole entry): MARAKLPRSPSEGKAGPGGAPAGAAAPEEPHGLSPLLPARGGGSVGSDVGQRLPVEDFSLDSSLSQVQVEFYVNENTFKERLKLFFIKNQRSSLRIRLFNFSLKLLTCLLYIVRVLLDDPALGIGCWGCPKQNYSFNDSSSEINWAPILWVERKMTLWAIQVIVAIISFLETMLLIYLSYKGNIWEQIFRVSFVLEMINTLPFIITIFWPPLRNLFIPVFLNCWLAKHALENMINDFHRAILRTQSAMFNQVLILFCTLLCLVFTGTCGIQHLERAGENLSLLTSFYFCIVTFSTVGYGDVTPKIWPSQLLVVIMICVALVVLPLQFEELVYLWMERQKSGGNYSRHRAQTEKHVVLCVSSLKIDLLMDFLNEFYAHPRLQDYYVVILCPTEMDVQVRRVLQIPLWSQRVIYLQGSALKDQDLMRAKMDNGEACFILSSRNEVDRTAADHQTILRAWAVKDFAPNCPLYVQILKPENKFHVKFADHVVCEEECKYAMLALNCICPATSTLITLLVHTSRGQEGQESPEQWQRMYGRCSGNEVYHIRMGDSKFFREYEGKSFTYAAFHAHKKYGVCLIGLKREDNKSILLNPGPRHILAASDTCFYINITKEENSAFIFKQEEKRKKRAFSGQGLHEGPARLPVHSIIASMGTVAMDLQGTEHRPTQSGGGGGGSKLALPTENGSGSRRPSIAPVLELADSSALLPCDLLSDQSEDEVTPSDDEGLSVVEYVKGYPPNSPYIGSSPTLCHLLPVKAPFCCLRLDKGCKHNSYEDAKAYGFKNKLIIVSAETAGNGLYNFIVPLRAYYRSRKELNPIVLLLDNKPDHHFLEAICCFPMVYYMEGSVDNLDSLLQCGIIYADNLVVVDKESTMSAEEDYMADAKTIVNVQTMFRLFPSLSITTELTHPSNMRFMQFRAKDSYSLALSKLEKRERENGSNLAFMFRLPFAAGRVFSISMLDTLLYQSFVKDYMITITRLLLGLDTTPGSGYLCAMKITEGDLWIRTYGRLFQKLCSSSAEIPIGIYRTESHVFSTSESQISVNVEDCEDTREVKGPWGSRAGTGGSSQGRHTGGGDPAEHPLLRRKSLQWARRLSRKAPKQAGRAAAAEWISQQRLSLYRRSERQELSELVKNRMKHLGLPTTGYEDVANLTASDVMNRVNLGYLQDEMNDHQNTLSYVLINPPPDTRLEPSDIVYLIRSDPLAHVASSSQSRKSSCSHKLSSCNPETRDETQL

Row | IC50 | Compound
1 | < 250 nM | Cn1nc(C(F)(F)F)cc1C(=O)N[C@H]1CCc2nn(-c3ccnc(C4CCC4)c3)cc21 [Compound I-72a]
2 | > 1000 nM | Cn1nc(C(F)(F)F)cc1C(=O)N[C@@H]1CCc2nn(-c3ccnc(C4CCC4)c3)cc21 [Compound I-72b]
3 | < 250 nM | Cn1nc(C(F)(F)F)cc1C(=O)N[C@H]1CCc2nn(-c3ccnc(OC(F)(F)F)c3)cc21 [Compound I-73a]
4 | 500 to 1000 nM | Cn1nc(C(F)(F)F)cc1C(=O)N[C@@H]1CCc2nn(-c3ccnc(OC(F)(F)F)c3)cc21 [Compound I-73b]
5 | < 250 nM | Cn1nc(C(F)(F)F)cc1C(=O)N[C@H]1CCc2nn(-c3ccnc(OC(F)F)c3)cc21 [Compound I-74a]
6 | > 1000 nM | Cn1nc(C(F)(F)F)cc1C(=O)N[C@@H]1CCc2nn(-c3ccnc(OC(F)F)c3)cc21 [Compound I-74b]
7 | < 250 nM | Cn1nc(C(F)(F)F)cc1C(=O)N[C@H]1CCc2nn(-c3ccnc(C4(C)CC4)c3)cc21 [Compound I-75a, (S)-1-Methyl-N-(2-(2-(1-methylcyclopropyl)pyridin-4-yl)-2,4,5,6-tetrahydrocyclopenta[c]pyrazol-4-yl)-3-(trifluoromethyl)-1H-pyrazole-5-carboxamide]
8 | > 1000 nM | Cn1nc(C(F)(F)F)cc1C(=O)N[C@H]1CCc2nn(-c3ccnc(C(C)(C)O)c3)cc21 [Compound I-76a]
9 | < 250 nM | Cn1nc(C(F)(F)F)cc1C(=O)N[C@H]1CCc2nn(-c3ccnc(C(C)(F)F)c3)cc21 [Compound I-77a, (S)—N-(2-(2-(1,1-Difluoroethyl)pyridin-4-yl)-2,4,5,6-tetrahydrocyclopenta[c]pyrazol-4-yl)-1-methyl-3-(trifluoromethyl)-1H-pyrazole-5-carboxamide]
10 | 500 to 1000 nM | Cn1nc(C(F)(F)F)cc1C(=O)N[C@@H]1CCc2nn(-c3ccnc(C(C)(F)F)c3)cc21 [Compound I-77b]
11 | < 250 nM | C#Cc1cc(-n2cc3c(n2)CC[C@@H]3NC(=O)c2cc(C(F)(F)F)nn2C)ccn1 [Compound I-78a]
12 | > 1000 nM | C#Cc1cc(-n2cc3c(n2)CC[C@H]3NC(=O)c2cc(C(F)(F)F)nn2C)ccn1 [Compound I-78b]
13 | < 250 nM | Cn1nc(C(F)(F)F)cc1C(=O)N[C@H]1CCCc2sc(-c3ccnc(C(F)(F)F)c3)cc21 [Compound I-79a]
14 | 500 to 1000 nM | Cn1nc(C(F)(F)F)cc1C(=O)N[C@H]1CCCc2sc(-c3ccnc(C(F)(F)F)c3)nc21 [Compound I-80a]
15 | > 1000 nM | Cn1nc(C(F)(F)F)cc1C(=O)N[C@@H]1CCCc2sc(-c3ccnc(C(F)(F)F)c3)nc21 [Compound I-80b]
16 | < 250 nM | Cn1nc(C(F)(F)F)cc1C(=O)N[C@H]1CCCc2cc(-c3ccnc(C(F)(F)F)c3)sc21 [Compound I-81a]
17 | < 250 nM | Cn1nc(C(F)(F)F)cc1C(=O)N[C@H]1CCCc2nc(-c3ccnc(C(F)(F)F)c3)sc21 [Compound I-82a]
18 | < 250 nM | Cn1nc(C(F)(F)F)cc1C(=O)NC1CCCc2nc(-c3ccnc(C(F)(F)F)c3)oc21 (centres unmarked) [Compound I-83]
19 | < 250 nM | Cn1nc(C(F)(F)F)cc1C(=O)N[C@H]1CCCc2oc(-c3ccnc(C(F)(F)F)c3)nc21 [Compound I-84a]
20 | < 250 nM | Cn1nc(C(F)(F)F)cc1C(=O)N[C@H]1CCCn2nc(-c3ccnc(C(F)(F)F)c3)nc21 [Compound I-86a, (S)-1-Methyl-3-(trifluoromethyl)-N-(2-(2-(trifluoromethyl)pyridin-4-yl)-5,6,7,8-tetrahydro-[1,2,4]triazolo[1,5-a]pyridin-8-yl)-1H-pyrazole-5-carboxamide]
21 | 500 to 1000 nM | Cn1nc(C(F)(F)F)cc1C(=O)N[C@H]1CCCc2cn(-c3ccnc(C(F)(F)F)c3)nc21 [Compound I-87a]
22 | > 1000 nM | Cn1nc(C(F)(F)F)cc1C(=O)N[C@@H]1CCCc2cn(-c3ccnc(C(F)(F)F)c3)nc21 [Compound I-87b]
23 | > 1000 nM | Cn1nc(C(F)(F)F)cc1C(=O)N[C@H]1CCCc2nn(-c3ccnc(C(=O)O)c3)cc21 [Compound I-88a]
